IC50 and AUC data for 18 compounds are collected here from ChEMBL document CHEMBL1135750, “Phenoxyphenyl sulfone N-formylhydroxylamines (retrohydroxamates) as potent, selective, orally bioavailable matrix metalloproteinase inhibitors” (J Med Chem, 2002).

Each structure is given as a SMILES string.

In general, IC50 refers to the midpoint of a concentration-inhibition curve. Usually AUC stands for concentration integrated over time.

In one series the target is T1, Interstitial collagenase (Homo sapiens, UniProt P03956).
T1 sequence (P03956 whole entry): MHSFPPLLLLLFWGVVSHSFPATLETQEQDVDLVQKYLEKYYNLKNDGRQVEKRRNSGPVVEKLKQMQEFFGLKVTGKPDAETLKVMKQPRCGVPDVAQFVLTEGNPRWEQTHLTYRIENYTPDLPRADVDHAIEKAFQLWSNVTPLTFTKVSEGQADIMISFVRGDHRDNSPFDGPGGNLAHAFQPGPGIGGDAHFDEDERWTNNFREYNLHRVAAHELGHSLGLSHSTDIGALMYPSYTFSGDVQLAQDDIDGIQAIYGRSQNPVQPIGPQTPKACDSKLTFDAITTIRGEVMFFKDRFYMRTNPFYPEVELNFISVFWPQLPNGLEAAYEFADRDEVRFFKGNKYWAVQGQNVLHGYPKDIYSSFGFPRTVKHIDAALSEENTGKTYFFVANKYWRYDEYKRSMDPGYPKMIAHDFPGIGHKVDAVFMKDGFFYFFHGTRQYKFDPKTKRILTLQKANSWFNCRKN
As to the kind of experiment: In vitro selective inhibition against matrix metalloprotease-1 (MMP-1) using a fluorimetric assay.

For series [1], the target named is Matrix metalloproteinase-9 (Homo sapiens, UniProt P14780). Nature of the series: In vitro selective inhibition against Matrix metalloprotease-9 (MMP-9) using fluorimetric assay.
Series [2] has as its target 72 kDa type IV collagenase (Homo sapiens, UniProt P08253). Nature of the series: In vitro selective inhibition against matrix metalloprotease-2 (MMP-2) using fluorimetric assay.
The nature of series [3]: AUC in monkey. It is filed as ADME. Details: concentration or dose not given beside the values. As to conditions: simiiformes, plasma.

Sequence of Matrix metalloproteinase-9 (P14780 whole entry): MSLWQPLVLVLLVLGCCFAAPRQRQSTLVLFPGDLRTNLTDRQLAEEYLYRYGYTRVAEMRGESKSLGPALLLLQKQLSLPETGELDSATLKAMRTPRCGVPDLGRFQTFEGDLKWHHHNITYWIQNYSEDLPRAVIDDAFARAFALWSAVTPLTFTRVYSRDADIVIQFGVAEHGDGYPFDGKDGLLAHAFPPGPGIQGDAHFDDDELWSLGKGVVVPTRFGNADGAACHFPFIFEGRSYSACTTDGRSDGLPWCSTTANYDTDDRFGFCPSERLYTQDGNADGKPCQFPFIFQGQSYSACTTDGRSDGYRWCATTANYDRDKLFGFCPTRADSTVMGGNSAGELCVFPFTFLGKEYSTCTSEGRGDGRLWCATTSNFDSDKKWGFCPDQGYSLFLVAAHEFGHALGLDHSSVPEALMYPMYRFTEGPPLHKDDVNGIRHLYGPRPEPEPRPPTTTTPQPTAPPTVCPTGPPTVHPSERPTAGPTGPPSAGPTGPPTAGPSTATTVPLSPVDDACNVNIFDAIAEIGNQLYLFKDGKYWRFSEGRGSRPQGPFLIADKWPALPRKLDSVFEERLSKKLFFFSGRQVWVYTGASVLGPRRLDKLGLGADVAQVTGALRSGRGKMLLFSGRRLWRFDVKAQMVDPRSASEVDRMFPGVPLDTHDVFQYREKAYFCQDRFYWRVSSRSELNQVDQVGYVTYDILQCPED
Sequence of 72 kDa type IV collagenase (P08253 whole entry): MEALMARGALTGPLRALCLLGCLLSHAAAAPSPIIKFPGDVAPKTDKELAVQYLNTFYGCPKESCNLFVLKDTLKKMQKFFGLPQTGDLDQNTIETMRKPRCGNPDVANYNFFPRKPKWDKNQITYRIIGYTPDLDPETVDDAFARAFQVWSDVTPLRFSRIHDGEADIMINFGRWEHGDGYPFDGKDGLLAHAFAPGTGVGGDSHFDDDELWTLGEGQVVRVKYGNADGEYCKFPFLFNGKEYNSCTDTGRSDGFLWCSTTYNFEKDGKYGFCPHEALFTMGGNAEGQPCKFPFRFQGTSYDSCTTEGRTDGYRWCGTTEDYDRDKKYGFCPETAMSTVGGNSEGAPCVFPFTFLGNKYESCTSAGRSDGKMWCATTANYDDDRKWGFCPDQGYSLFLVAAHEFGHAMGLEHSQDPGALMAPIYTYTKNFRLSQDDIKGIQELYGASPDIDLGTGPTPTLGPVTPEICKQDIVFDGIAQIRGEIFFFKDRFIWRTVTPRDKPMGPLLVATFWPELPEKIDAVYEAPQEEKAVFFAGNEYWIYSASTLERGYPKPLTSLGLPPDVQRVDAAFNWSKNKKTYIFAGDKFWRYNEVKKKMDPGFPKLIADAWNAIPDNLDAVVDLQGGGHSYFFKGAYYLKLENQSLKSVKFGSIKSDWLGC

`CN(CC(CS(=O)(=O)c1ccc(Oc2ccc(OC(F)(F)F)cc2)cc1)N(O)C=O)S(C)(=O)=O` (configuration not stated): the IC50 against Interstitial collagenase was 2000 nM; in series [1], 1.7 nM; in series [2], 12 nM.

For `O=CN(O)C(CS(=O)(=O)c1ccc(Oc2ccc(OC(F)(F)F)cc2)cc1)c1ccccc1` (configuration not stated), the IC50 is more than 50000 nM at Interstitial collagenase, 4.1 nM in series [1] and 7.4 nM in series [2].

As to `CC1(C)NC(=O)N(CC(CS(=O)(=O)c2ccc(Oc3ccc(OC(F)(F)F)cc3)cc2)N(O)C=O)C1=O` (configuration not stated), the AUC in series [3] turned out to be 8 µM·h. For the same compound, the IC50 was found to be 820 nM on Interstitial collagenase, 2 nM in series [1] and 1.3 nM in series [2].

As for `O=CN(O)C(COCCO)CS(=O)(=O)c1ccc(Oc2ccc(OC(F)(F)F)cc2)cc1` (configuration not stated), the IC50 is more than 50000 nM against Interstitial collagenase, 0.3 nM in series [1] and 0.44 nM in series [2].

As to `CN1C(=O)N(CC(CS(=O)(=O)c2ccc(Oc3ccc(C#N)cc3)cc2)N(O)C=O)C(=O)C1(C)C` (configuration not stated), the concentration for half-maximal inhibition (IC50) came out at 2500 nM against Interstitial collagenase, 1.8 nM in series [1] and 1.4 nM in series [2].

With `COCC(CS(=O)(=O)c1ccc(Oc2ccc(OC(F)(F)F)cc2)cc1)N(O)C=O` (configuration not stated), the IC50 is more than 50000 nM against Interstitial collagenase, 0.9 nM in series [1] and 2.4 nM in series [2].

`O=CN(O)C(CS(=O)(=O)c1ccc(Oc2ccc(OC(F)(F)F)cc2)cc1)c1ccccn1` (configuration not stated): the AUC in series [3] amounted to 1 µM·h. Moreover, the IC50 at Interstitial collagenase was more than 50000 nM; in series [1] it was 2.2 nM; in series [2], 1.7 nM.

With `O=CN(O)C(CSc1cccs1)CS(=O)(=O)c1ccc(Oc2ccc(OC(F)(F)F)cc2)cc1` (configuration not stated), the concentration for half-maximal inhibition (IC50) stood at 6700 nM against Interstitial collagenase, 9.7 nM in series [1] and 3.6 nM in series [2].

Consider `O=CN(O)C(CS(=O)(=O)c1ccc(Oc2ccc(OC(F)(F)F)cc2)cc1)c1ccc(C(F)(F)F)cc1` (configuration not stated), for which the IC50 against Interstitial collagenase was more than 50000 nM; in series [1], 37 nM; in series [2] it was 62 nM.

As for `Cn1c(C(CS(=O)(=O)c2ccc(Oc3ccc(OC(F)(F)F)cc3)cc2)N(O)C=O)cc2ccccc21` (configuration not stated), the IC50 is more than 50000 nM against Interstitial collagenase, 12 nM in series [1] and 9.5 nM in series [2].

In series [3], `O=CN(O)C(CS(=O)(=O)c1ccc(Oc2ccc(OC(F)(F)F)cc2)cc1)CS(=O)(=O)N1CCOCC1` (configuration not stated) registered an AUC of 3 µM·h. The half-maximal inhibitory concentration (IC50) against Interstitial collagenase stood at 2500 nM; in series [1], 0.86 nM; in series [2], 0.39 nM.

Take `CCCCOc1ccc(-c2ccc(S(=O)(=O)CC(CN3C(=O)NC(C)(C)C3=O)N(O)C=O)cc2)cc1` (configuration not stated): the IC50 was 240 nM against Interstitial collagenase, 6.2 nM in series [1] and 2.4 nM in series [2].

Consider `CSc1ccc(-c2ccc(S(=O)(=O)CC(CN3C(=O)NC(C)(C)C3=O)N(O)C=O)cc2)cc1` (configuration not stated), for which the IC50 came to 2.9 nM on Interstitial collagenase, 1.1 nM in series [1] and 0.67 nM in series [2].

Regarding `COC(=O)c1ccc(CCC(CS(=O)(=O)c2ccc(Oc3ccc(OC(F)(F)F)cc3)cc2)N(O)C=O)cc1` (configuration not stated), the IC50 against Interstitial collagenase is more than 50000 nM; in series [1] it was 0.98 nM; in series [2], 34 nM.

`CC1(C)OC[C@@H]([C@@H](CS(=O)(=O)c2ccc(Oc3ccc(OC(F)(F)F)cc3)cc2)N(O)C=O)O1` (stereo in doubt; 19v): the half-maximal inhibitory concentration (IC50) is more than 50000 nM on Interstitial collagenase, 2.3 nM in series [1] and 6.3 nM in series [2].

As to `CC1(C)OC[C@H]([C@@H](CS(=O)(=O)c2ccc(Oc3ccc(OC(F)(F)F)cc3)cc2)N(O)C=O)O1` (stereo in doubt; 19w), the concentration for half-maximal inhibition (IC50) is more than 50000 nM on Interstitial collagenase, 1.4 nM in series [1] and 25 nM in series [2].

In the case of `CC1(C)OC[C@@H]([C@@H](CS(=O)(=O)c2ccc(Oc3ccc(OC(F)(F)F)cc3)cc2)N(O)C=O)O1` (stereo in doubt; 19x), the IC50 is more than 50000 nM at Interstitial collagenase, 480 nM in series [1] and 260 nM in series [2].

Consider `O=C(C[C@H](CSc1ccccc1)C(=O)O)c1ccc(-c2ccc(Cl)cc2)cc1` [TANOMASTAT], for which the IC50 is more than 5000 nM at Interstitial collagenase, 301 nM in series [1] and 11 nM in series [2].
